Test results taken from ChEMBL document CHEMBL1133160, “Molecular modeling of the aldose reductase-inhibitor complex based on the X-ray crystal structure and studies with single-site-directed mutants” (J Med Chem, 2000).

How the values were obtained:
[1] = Inhibitory Activity ratio (IC50 ratio) calculated by Human recombinant aldose reductase wild type against Mutant Aldose reductase (W20Y)
[2] = Inhibitory Activity ratio (IC50 ratio) calculated by Human recombinant aldose reductase wild type against Mutant Aldose reductase (W20A).
[3] = Inhibitory Activity ratio (IC50 ratio) calculated by Human recombinant aldose reductase wild type against Mutant Aldose reductase (W111Y).
[4] = Inhibitory Activity ratio (IC50 ratio) calculated by Human recombinant aldose reductase wild type against Mutant Aldose reductase (W111A)
[5] = molecular target: Aldo-keto reductase family 1 member B1 (Homo sapiens, UniProt P15121); test: Inhibitory Activity against Human recombinant Aldose Reductase (wild type)

| Ratio [1] | Ratio [2] | Ratio [3] | Ratio [4] | IC50 [5] [nM] | SMILES |
| --- | --- | --- | --- | --- | --- |
| 3 | 1670 | 773 | 2730 | 73.2 | CN1C(=O)c2ccc(F)cc2C2(CC(=O)NC2=O)C1=O (stereo not given) |
| 48 | 9140 | 1960 | 781 | 54.7 | O=C1NC(=O)C2(N1)c1cc(F)ccc1-c1ccc(F)cc12 |
| 21 | 311 | 193 | 120 | 227 | O=C(O)CC1C(=O)N(Cc2ccc(Br)cc2F)C(=O)c2ccc(F)cc21 (stereo not given) |
| 1.5 | 1070 | 324 | > 1280 | 78.2 | CN1C(=O)c2ccc(Cl)cc2C2(CC(=O)NC2=O)C1=O (stereo not given) |
| 0.1 | 1 | 2 | 19 | 144 | O=C1CC2(C(=O)N1)C(=O)N(Cc1nc3cc(C(F)(F)F)ccc3s1)C(=O)c1ccc(F)cc12 (stereo not given) |
| 47 | 1770 | 58 | 1770 | 66.5 | O=C(O)Cc1nn(Cc2ccc(Br)cc2F)c(=O)c2ccccc12 [PONALRESTAT] |
| 2.5 | 448 | 12 | 786 | 42.4 | O=C(O)Cn1c(=O)n(Cc2ccc(Br)cc2F)c(=O)c2ccc(Cl)cc21 [ZENARESTAT] |
